Measured values taken from article PMC5926742 (Japanese Journal of Cancer Research : Gann, 2001).

Molecular target: DNA polymerase β (Bos taurus, UniProt Q27958)
Assay: [methyl-3H]TTP incorporation into activated DNA, DE81 paper disc
Format: biochemical

SMILES | IC50
Nc1ccn([C@@H]2O[C@H](COP(=O)(O)OP(=O)(O)OP(=O)(O)O)[C@@H](O)C2(F)F)c(=O)n1 [dFdCTP] | 450 µM
Nc1ccn([C@H]2CC[C@@H](COP(=O)(O)OP(=O)(O)OP(=O)(O)O)O2)c(=O)n1 [ddCTP] | 240 µM
